The numbers were not newly measured in CN110812364A, “半乳寡糖及其衍生物在作为SGLTs抑制剂中的应用” (Ocean University of China, priority 2019, dated 2020), which cites them from elsewhere.

The data set deals with T1, SGLT2 (Homo sapiens, UniProt P31639).
T1 sequence (P31639 1-672): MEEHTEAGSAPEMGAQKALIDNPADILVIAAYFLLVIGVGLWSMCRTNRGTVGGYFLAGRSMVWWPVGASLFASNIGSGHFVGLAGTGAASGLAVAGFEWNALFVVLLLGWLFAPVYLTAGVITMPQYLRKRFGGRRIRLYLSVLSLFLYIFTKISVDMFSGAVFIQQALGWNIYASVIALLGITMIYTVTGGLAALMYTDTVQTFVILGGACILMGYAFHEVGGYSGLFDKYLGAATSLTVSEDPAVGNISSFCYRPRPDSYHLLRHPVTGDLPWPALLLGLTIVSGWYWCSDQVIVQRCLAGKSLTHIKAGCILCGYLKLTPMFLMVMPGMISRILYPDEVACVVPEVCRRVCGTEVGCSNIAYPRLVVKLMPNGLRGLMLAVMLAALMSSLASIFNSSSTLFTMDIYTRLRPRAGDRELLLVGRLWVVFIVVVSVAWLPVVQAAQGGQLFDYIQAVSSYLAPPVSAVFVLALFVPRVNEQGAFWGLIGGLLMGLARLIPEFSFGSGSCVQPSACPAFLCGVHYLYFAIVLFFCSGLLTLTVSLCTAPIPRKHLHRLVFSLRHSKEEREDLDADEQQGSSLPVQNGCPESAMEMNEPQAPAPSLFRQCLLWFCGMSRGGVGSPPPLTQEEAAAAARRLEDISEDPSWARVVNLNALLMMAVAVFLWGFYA
The note with it: dual inhibitor of SGLT1 and SGLT2, background section.

On to `O=C(CCc1ccc(O)cc1)c1c(O)cc(O)cc1O[C@@H]1O[C@H](CO)[C@@H](O)[C@H](O)[C@H]1O` [根皮苷, 根皮苷(phloridzin)], for which the “selectivity for SGLT1 and SGLT2” value is recorded as “选择性较差”.
